Laboratory results from ChEMBL document CHEMBL1201862, “PubChem BioAssay data set” (2004).
Active and inactive are the calls of the source.

Key:
[1] = biological target: Luciferin 4-monooxygenase (Photinus pyralis, UniProt P08659); assay: inhibition of purified Photinus pyralis luciferase – biochemical, luminescence, dose response (AID 1891)
[2] = Luminescence Cell-Based Dose Confirmation HTS to Identify Inhibitors of Platelet Dense Granule Release. [Related pubchem assays: 1663 (Primary HTS), 1678 (Summary of Project)]; type: functional
Cytochrome P450 2C19 = Cytochrome P450 2C19 (Homo sapiens, UniProt P33261); assay: Cytochrome panel assay with activity outcomes. Panel member name: p450-cyp2c19 Compounds with AC50 equal or less than 10 uM are considered active; type: functional; details: read-out: AC50
Cytochrome P450 3A4 = Cytochrome P450 3A4 (Homo sapiens, UniProt P08684);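 note: CYP3A4 tested as one member of a cytochrome P450 panel screen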
Cytochrome P450 2C9 = Cytochrome P450 2C9 (Homo sapiens, UniProt P11712)
[3] = biological target: T1, Short transient receptor potential channel 4 (Mus musculus, UniProt Q9QUQ5); assay: block of DAMGO-driven TRPC4 calcium entry – cell-based, HEK293 TRPC4/mu-opioid, Fluo-4 calcium, dose response (AID 434942); type: functional;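 note: potency of inhibitors blocking the TRPC4 calcium response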
T1 sequence (Q9QUQ5 whole entry): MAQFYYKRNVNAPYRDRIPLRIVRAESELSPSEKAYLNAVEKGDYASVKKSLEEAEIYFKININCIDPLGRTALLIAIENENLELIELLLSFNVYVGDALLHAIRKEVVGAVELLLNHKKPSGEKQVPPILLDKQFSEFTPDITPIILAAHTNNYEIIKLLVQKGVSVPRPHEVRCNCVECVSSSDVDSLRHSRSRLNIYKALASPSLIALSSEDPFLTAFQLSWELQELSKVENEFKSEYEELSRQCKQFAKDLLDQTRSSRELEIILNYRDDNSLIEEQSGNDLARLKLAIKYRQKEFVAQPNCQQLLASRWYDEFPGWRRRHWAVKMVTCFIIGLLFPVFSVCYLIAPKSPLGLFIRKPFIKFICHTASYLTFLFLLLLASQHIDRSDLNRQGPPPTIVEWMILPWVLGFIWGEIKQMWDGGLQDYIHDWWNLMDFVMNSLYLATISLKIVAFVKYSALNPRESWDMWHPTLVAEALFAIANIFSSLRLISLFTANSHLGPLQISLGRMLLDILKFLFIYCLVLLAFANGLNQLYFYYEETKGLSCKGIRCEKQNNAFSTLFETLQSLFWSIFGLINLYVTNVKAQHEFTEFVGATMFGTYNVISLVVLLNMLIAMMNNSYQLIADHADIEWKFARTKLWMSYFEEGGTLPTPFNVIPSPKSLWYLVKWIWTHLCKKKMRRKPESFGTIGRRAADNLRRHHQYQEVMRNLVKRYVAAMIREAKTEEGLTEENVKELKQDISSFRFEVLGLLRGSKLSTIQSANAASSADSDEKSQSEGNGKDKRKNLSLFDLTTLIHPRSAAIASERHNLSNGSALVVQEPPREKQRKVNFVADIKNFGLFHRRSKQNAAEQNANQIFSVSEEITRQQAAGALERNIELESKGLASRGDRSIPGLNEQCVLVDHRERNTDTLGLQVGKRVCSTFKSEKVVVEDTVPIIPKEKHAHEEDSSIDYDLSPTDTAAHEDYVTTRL

[4] = biological target: T2, Corticotropin-releasing factor receptor 2/Corticotropin-releasing factor-binding protein (Homo sapiens, UniProt P24387+Q13324); assay: activators of CRF receptor 2 with binding protein – uHTS hits, confirmation (AID 602473); type: functional; details: read-out: EC50_Mean
T2 sequence (Q13324 whole entry): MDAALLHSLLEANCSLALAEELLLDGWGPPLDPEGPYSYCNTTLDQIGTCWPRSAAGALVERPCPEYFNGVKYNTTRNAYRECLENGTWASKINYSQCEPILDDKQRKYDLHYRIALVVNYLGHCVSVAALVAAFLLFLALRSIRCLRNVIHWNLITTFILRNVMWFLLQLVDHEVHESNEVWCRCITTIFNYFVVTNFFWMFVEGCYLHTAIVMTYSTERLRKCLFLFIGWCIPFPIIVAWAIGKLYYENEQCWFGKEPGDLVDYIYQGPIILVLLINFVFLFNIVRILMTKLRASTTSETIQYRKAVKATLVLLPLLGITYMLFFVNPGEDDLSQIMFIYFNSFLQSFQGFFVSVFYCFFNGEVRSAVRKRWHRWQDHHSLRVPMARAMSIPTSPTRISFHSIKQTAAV
T2 sequence (P24387 whole entry): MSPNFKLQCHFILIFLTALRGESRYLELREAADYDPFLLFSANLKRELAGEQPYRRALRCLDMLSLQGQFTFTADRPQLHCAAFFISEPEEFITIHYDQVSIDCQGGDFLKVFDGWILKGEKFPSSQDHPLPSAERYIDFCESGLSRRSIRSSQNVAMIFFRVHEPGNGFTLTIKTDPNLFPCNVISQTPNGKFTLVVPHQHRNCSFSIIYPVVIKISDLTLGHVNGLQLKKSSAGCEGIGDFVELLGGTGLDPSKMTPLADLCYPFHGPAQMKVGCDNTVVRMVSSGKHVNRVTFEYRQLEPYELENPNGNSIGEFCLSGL

[5] = biological target: T2, Corticotropin-releasing factor receptor 2/Corticotropin-releasing factor-binding protein; assay: Dose Response confirmation of uHTS hits for small molecule antagonists of the CRF-binding protein and CRF-R2 receptor complex.; type: functional; details: read-out: IC50_Mean
[6] = P. falciparum Dd2 growth inhibitors, dose response, SYBR Green, cherry-picked samples (AID 1159567); type: functional, cell-based
[7] = system: Streptococcus sp. 'group A'; assay: Streptococcus pyogenes SK(-)GAS viability under kanamycin – luminescence, BacTiterGlo, confirmation, counter-screen for streptokinase expression inhibitor project, dose response (AID 1900); type: functional, organism-based
Streptococcus = assay: GAS UMAA2166 growth inhibition – luminescence, BacTiterGlo, counter-screen for streptokinase expression inhibitor project, dose response (AID 1915); type: functional, organism-based;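 note: potency for reduction of bacterial viability or growth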
Streptokinase A = biological target: T3, Streptokinase A (Streptococcus pyogenes serotype M1, UniProt P10520); assay: viability-normalized secreted streptokinase activity reduction – plasminogen activation absorbance, OD405, dose response (AID 1914); type: functional, Streptococcus pyogenes M1 GAS;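 note: secreted streptokinase activity via plasminogen activation per viability signal from cell pellet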
T3 sequence (P10520 whole entry): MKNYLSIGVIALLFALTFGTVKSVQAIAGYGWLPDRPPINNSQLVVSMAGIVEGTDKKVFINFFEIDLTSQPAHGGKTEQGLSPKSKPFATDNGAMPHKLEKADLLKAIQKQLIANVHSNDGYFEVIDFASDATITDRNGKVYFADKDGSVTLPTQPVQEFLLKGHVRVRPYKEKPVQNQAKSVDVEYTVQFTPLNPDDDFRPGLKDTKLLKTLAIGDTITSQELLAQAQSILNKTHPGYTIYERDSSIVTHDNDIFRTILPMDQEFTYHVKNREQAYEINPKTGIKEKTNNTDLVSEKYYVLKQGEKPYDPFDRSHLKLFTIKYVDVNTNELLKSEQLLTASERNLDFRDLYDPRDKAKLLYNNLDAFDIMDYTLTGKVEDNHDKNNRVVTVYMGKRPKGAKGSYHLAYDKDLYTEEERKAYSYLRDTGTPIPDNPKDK

[8] = alpha-synuclein stem-loop luciferase translation blockers – H4 neuroglioma cells, luminescence, confirmation (AID 1988); type: functional, cell-based
[9] = Luminescence Cell-Based Dose Retest to Confirm Inhibitors of Cancer Stem Cells. [Related pubchem assays (depositor defined):AID2717, AID2721]; type: functional; details: Homo sapiens

Luciferin 4-monooxygenase, sequence (P08659 whole entry): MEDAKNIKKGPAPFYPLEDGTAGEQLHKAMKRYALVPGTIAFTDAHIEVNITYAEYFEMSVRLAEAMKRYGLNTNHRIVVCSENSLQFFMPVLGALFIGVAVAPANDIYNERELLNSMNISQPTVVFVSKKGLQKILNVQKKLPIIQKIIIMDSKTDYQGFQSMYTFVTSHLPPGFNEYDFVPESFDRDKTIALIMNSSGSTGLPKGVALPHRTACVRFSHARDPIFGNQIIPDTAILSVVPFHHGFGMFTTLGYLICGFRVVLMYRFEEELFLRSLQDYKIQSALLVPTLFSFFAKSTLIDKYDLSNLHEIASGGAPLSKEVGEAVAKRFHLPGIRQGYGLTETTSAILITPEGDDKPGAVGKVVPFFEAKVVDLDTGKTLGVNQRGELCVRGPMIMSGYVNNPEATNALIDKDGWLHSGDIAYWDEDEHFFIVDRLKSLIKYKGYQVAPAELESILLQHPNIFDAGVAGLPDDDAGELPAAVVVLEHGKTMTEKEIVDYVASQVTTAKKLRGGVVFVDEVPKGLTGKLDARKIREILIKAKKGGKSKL
Cytochrome P450 3A4, sequence (P08684 whole entry): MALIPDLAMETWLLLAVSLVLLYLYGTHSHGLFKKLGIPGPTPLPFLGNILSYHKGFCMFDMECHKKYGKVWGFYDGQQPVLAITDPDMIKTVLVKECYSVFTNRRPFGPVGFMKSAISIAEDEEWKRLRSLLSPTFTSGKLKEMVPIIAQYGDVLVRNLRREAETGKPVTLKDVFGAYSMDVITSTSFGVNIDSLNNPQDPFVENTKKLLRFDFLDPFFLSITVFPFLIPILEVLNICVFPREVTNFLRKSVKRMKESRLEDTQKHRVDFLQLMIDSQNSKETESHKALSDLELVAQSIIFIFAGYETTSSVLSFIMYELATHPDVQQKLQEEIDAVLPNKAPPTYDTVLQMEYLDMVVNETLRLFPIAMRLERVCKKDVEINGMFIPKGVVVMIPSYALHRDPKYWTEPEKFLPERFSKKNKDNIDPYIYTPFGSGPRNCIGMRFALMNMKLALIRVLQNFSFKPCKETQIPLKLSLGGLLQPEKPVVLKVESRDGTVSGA
Cytochrome P450 2C9, sequence (P11712 whole entry): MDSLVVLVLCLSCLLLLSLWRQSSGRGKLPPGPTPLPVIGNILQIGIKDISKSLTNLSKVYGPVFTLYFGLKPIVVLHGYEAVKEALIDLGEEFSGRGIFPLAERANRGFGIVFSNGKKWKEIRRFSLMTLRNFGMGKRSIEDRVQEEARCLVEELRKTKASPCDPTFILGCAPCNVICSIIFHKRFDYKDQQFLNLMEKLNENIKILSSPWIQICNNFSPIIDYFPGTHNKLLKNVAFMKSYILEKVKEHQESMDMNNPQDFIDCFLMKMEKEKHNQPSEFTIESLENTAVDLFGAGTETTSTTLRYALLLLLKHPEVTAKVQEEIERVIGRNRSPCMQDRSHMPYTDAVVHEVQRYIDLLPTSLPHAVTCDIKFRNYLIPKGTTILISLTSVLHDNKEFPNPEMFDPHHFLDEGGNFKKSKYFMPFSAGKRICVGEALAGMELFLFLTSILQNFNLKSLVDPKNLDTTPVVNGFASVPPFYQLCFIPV
Cytochrome P450 2C19, sequence (P33261 whole entry): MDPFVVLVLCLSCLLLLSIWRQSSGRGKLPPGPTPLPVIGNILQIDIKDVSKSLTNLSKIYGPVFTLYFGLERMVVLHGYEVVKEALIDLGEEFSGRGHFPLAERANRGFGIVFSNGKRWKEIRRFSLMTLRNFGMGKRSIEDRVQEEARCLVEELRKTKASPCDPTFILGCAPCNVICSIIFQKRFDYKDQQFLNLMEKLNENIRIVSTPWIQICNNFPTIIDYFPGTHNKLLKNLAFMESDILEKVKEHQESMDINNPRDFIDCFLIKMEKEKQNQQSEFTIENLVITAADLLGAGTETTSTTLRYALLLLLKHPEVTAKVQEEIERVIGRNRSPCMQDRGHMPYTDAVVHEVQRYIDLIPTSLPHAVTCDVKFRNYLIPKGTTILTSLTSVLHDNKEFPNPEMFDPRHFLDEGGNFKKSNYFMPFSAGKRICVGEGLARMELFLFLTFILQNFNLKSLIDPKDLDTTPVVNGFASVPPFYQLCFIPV

## CC(=O)Nc1ccc(OC(=O)N(C)c2ccccc2)cc1
[1]
  EC50: > 112 µM (not active)
[2]
  EC50: 18.8 µM (active)

## O=C(CCc1ccccc1)Nc1nncs1
Cytochrome P450 2C19
  AC50: 39.8 µM (inconclusive)
Cytochrome P450 3A4
  AC50: 12.6 µM (inconclusive)
[1]
  EC50: > 112 µM (not active)
Cytochrome P450 2C9
  AC50: 31.6 µM (inconclusive)
[2]
  EC50: > 112 µM (not active)

## Cc1ccc(NC(=O)CN2CCc3ccccc3C2)cc1S(=O)(=O)N1CCOCC1
[3]
  EC50: 3.76 µM (active)

## CCCCn1c(SCC(=O)OCC)nc2c(sc(=S)n2-c2ccccc2OC)c1=O
[3]
  EC50: 1.68 µM (active)

## CCn1nnc(NC(=O)c2cccnc2)n1
[1]
  EC50: > 112 µM (not active)
[2]
  EC50: > 112 µM (not active)

## COc1cccc(/C(C)=N/NS(=O)(=O)c2ccc(Cl)cc2)c1
[4]
  EC50: > 53 µM (inactive)
[5]
  IC50: > 47.1 µM (inactive)

## N#Cc1ccc(-c2ccc([C@@H]3[C@@H](CO)N4C(=O)CN(C(=O)C5CCC5)C[C@@H]34)cc2)cc1
[6]
  AC50: 5.38 µM (active)

## COc1ccc(C)cc1N(C(=O)c1snc(C(N)=O)c1N)C(C(=O)NC1CCCC1)c1ccc(F)cc1 (configuration not stated)
[3]
  EC50: 1.33 µM (active)

## COc1ccc(CN2CC3(CN(C(C)=O)C3)c3c([nH]c4cc(OC)ccc34)[C@@H]2CO)cc1
[6]
  AC50: 9.9 µM (active)

## Nc1ccc(N=Nc2ccccc2)cc1[N+](=O)[O-]
[4]
  EC50: > 53 µM (inactive)
[5]
  IC50: > 47.1 µM (inactive)

## COc1ccc(CNC(=O)CN(C)Cc2ccccc2F)cc1OC
[3]
  EC50: 8.41 µM (active)

## CCc1ccccc1NC(=O)NC(C)c1ccc2c(c1)OCO2 (configuration not stated)
[7]
  EC50: > 150 µM (not active)
[4]
  EC50: > 53 µM (inactive)
Streptococcus
  EC50: > 150 µM (not active)
[5]
  IC50: > 47.1 µM (inactive)
Streptokinase A
  EC50: > 150 µM (not active)

## COc1ccc(S(=O)(=O)N2CCCC(C(=O)NCc3ccncc3)C2)cc1 (configuration not stated)
[4]
  EC50: > 53 µM (inactive)
[5]
  IC50: > 47.1 µM (inactive)

## CSc1ncc(Cl)c(C(=O)Nc2ccc(S(=O)(=O)N3CCOCC3)cc2)n1
[4]
  EC50: > 53 µM (inactive)
[5]
  IC50: > 47.1 µM (inactive)

## CCOC(=O)CSc1nc2c(sc(=S)n2Cc2ccco2)c(=O)n1-c1ccccc1
[3]
  EC50: 2.37 µM (active)

## Cc1ccc(NC(=O)CSCC(=O)OCc2cc(=O)oc3cc(O)ccc23)c(C)c1
[3]
  EC50: 5.96 µM (active)

## CC(C)CC(=O)Nc1cccc(NC(=O)c2ccccc2Cl)c1
[1]
  EC50: > 112 µM (not active)
[2]
  EC50: 2.39 µM (active)

## O=C(CN1C(=O)c2cccc3cccc1c23)N1CCN(c2cccc(Cl)c2)CC1
[1]
  EC50: > 112 µM (not active)
[2]
  EC50: > 112 µM (not active)

## CCOC(=O)c1cc(=O)cc(C(=O)OCC)o1
[4]
  EC50: > 53 µM (inactive)
[5]
  IC50: > 47.1 µM (inactive)

## CO[C@@H]1CN(C)C(=O)c2cc(NC(=O)NC3CCCCC3)ccc2OC[C@@H](C)N(CCc2ccccc2)C[C@H]1C
[6]
  AC50: 5.84 µM (active)

## CCCP(=O)(CC(=O)N(CC)CC)c1ccccc1 (configuration not stated)
[4]
  EC50: > 53 µM (inactive)
[5]
  IC50: > 47.1 µM (inactive)

## CSc1nc(N2CCOCC2)c2c3c(sc2n1)CCCC3
[3]
  EC50: 4.73 µM (active)

## COc1cc(CN2CC3(CCN(C(=O)c4cccnc4)CC3)c3c([nH]c4cc(OC)ccc34)[C@@H]2CO)cc(OC)c1
[6]
  AC50: 5.84 µM (active)

## Nc1nc(Nc2ccccc2)nc2c1ncn2[C@@H]1O[C@H](CO)[C@@H](O)[C@H]1O
[1]
  EC50: > 112 µM (not active)
[2]
  EC50: 0.224 µM (active)

## CCOc1ccc(N/C=C/C(=O)c2ccc(OC)cc2)cc1
[1]
  EC50: > 112 µM (not active)
[2]
  EC50: > 112 µM (not active)

## Cc1cc(C)c(S(=O)(=O)c2ccccc2C)c(OCC(C)(C)C)n1
[3]
  EC50: 2.37 µM (active)

## CCCCN(Cc1ccccc1)C(=O)C1CCN(Cc2sccc2C)CC1
[3]
  EC50: 2.99 µM (active)

## Nc1c2c(nc3c1CCCC3)CCCC2.O=C(O)c1ccnc(O)c1
[3]
  EC50: 2.99 µM (active)

## OC[C@H]1CC[C@@H]2O[C@H](CCc3ccc(C#CCc4ccccc4)cc3)[C@@H](n3cc(-c4ccccc4)nn3)C[C@@H]2O1
[6]
  AC50: 6.17 µM (active)

## Cc1ccc(C)c(NC(=S)Nc2ncccc2C)c1
[4]
  EC50: > 53 µM (inactive)
[5]
  IC50: > 47.1 µM (inactive)

## O=c1cc(CN2CCN(Cc3ccccc3)CC2)c2cc(O)ccc2o1
[4]
  EC50: > 53 µM (inactive)
[5]
  IC50: > 47.1 µM (inactive)

## CN1c2ccc(C#Cc3cccnc3)cc2[C@H]2[C@H](CCN2C(=O)C2CCCC2)[C@H]1CO
[6]
  AC50: 4 µM (active)

## Cc1ccccc1OCCC(=O)N1CCN(S(=O)(=O)c2ccccc2F)CC1
[1]
  EC50: > 112 µM (not active)
[2]
  EC50: > 112 µM (not active)

## O=[N+]([O-])/C(C(Cl)=C(Cl)Cl)=C(/NC1CC1)Sc1ccccc1
[4]
  EC50: > 53 µM (inactive)
[5]
  IC50: > 47.1 µM (inactive)

## O=C(Cn1c(NCCCO)nc2ccccc21)c1ccc(Br)cc1
[3]
  EC50: 2.99 µM (active)

## COc1cccc(C(=O)Nc2ccc3c(c2)C(=O)N(C)C[C@@H](OC)[C@H](C)CN(CCc2ccccc2)[C@H](C)CO3)c1
[6]
  AC50: 4.35 µM (active)

## Clc1ccc(/C=C/c2nc3ccccc3[nH]2)cc1
[8]
  EC50: 9.68 µM (inconclusive)
[1]
  EC50: 0.545 µM (active)
[9]
  AC50: 2.34 µM (active)
[2]
  EC50: 1.05 µM (active)

## Cn1c(=O)n(Cc2ccccc2Cl)c2ccccc21
[4]
  EC50: > 53 µM (inactive)
[5]
  IC50: > 47.1 µM (inactive)

## C=CCOc1ccc(C2CC(C)=NN2c2ccccc2)cc1 (configuration not stated)
[3]
  EC50: 4.22 µM (active)
